In brackets after ≈: the same amount, converted by molar mass. Where two headings read alike, the source gives them in different places.
Key:
MDA-MB-231 = assay: MTT cell proliferation assay, MDA-MB-231; format: cell-based, human; conditions: for inhibition at 10 µg/mL / IC50: Homo sapiens, MDA-MB-231
Experimental: (§1) MTT [3-(4,5-dimethylthiazol-2-yl)-2,5-diphenyltetrazolium bromide] incorporation based cell proliferation assay was performed as described previously (Reference). The cytotoxic efficacy of some analogs was evaluated in different cell lines by MTT cell proliferation assay kit (Roche Applied Sciences, Germany). The assay was carried out according to the instruction provided by the vendor. Briefly, in brief, equal numbers of cells was plated in 96-well flat-bottomed plates in 100 μl of medium and were exposed to different analogs selected from 1 to 63 at various concentrations up to 10 μg/ml for a period of three days. Vehicle control culture wells received only a maximum of 0.5% DMSO. Thereafter, 0.5 mg/ml of MTT reagent was added to each well and the microplate was incubated further for 4 h at 37° C. in presence of 5% CO2. Finally, the cells were solubilized by adding solubilizing solution and allowed to incubate at 37° C. overnight. After complete solubilization of the formazan crystals the absorbance was read at 540 nm in a microplate reader (BioRad, USA). The results (mean OD±SD) obtained from quadruplicate wells were used in calculation to determine the inhibition of cell proliferation (50% of inhibitory concentration, IC50) of the test compounds.
(§2) The cytotoxic properties of some analogs were evaluated by MTT incorporation assay. The methodology of the assay procedure was the same as mentioned in example 41.

MCF-7 = assay: MTT cell proliferation assay, MCF-7; format: cell-based, human; conditions: for inhibition at 10 µg/mL / IC50: Homo sapiens, MCF7
Experimental: as §1, §2

potato 5-lipoxygenase = assay: 5-Lipoxygenase enzyme inhibitory activity; format: biochemical
Experimental: 5-Lipoxygenase enzyme inhibitory activity was measured using the method of Schewe et al. (Adv Enzymol, Vol 58, 191-272, 1986), modified by Reddanna et. al., (Methods of Enzymology, Vol 187, 268-277, 1990). The assay mixture contained 80 μM linoleic acid and sufficient amount of potato 5-lipoxygenase in 50 mM phosphate buffer (pH 6.3). The reaction was initiated by the addition of enzyme buffer mix to linoleic acid and the enzyme activity was monitored as the increase in absorbance at 234 nm. The reaction was monitored for 120 sec and the inhibitory potential of the test substances (29, 31, 33, 34, 35, 36, 39, 40, 43, 44, 46, 47, 48, 49, 50, 54, 57, 59, 62 & 63) was measured by incubating various concentrations of test substances two minutes before the addition of linoleic acid. All assays were performed three times. Percentage inhibition was calculated by comparing the slope of the curve obtained for test substances with that of the control.

A549 = assay: MTT cell proliferation assay, A549; format: cell-based, human; conditions: Homo sapiens, A549; Table 2; 10 ug/ml
Experimental: as §1

[1] = Table 4, 10 μg/ml, read-out: Percentage Inhibition of cell proliferation MDA-MB-231
[2] = Table 4, 10 μg/ml, read-out: Percentage Inhibition of cell proliferation MCF-7
[3] = Table 2, 10 ug/ml, read-out: Inhibition of cell proliferation MDA-MB-231, % at 10 ug/ml
[4] = Table 2, 10 ug/ml, read-out: Inhibition of cell proliferation MCF-7, % at 10 ug/ml

% inhibition at 10 μg/ml (potato 5-lipoxygenase)	% inhibition at 25 μg/ml (potato 5-lipoxygenase)	SMILES	inhibition at 10 µg/mL (MDA-MB-231; [1])	inhibition at 10 µg/mL (MCF-7; [2])	further results
		CC1CCC2(C)CCC3(C)C(=CC(=O)C4C5(C)CCC(OC(=O)CCC(=O)O)C(C)(C(=O)O)C5CCC43C)C2C1C (stereo not shown) [Analog 4]			Percentage Inhibition of cell proliferation MDA-MB-231 (MDA-MB-231; Table 4, 10 μg/ml): 40.7% at 10 μg/ml; Percentage Inhibition of cell proliferation MCF-7 (MCF-7; Table 4, 10 μg/ml): 26.6% at 10 μg/ml
		COC(=O)[C@]1(C)C2CC[C@]3(C)C(C(=O)C=C4C5[C@@H](C)[C@H](C)CC[C@]5(C)CC[C@]43C)[C@@]2(C)CC[C@H]1S (stereo partly shown) [Analog 15]	37.5%	21.6%	
		CC(=O)OC1CC[C@@]2(C)C(CC[C@]3(C)C2C(=O)C=C2C4[C@@H](C)[C@H](C)CC[C@]4(C)CC[C@]23C)[C@@]1(C)C(=O)OCCN(C)C (stereo partly shown) [Analog 18]			Percentage Inhibition of cell proliferation MCF-7 (MCF-7; Table 4, 10 μg/ml): 5.97 at 10 μg/ml %
33.29%		CCCCNC(=O)[C@]1(C)C2CC[C@]3(C)C(C(=O)C=C4C5[C@@H](C)[C@H](C)CC[C@]5(C)CC[C@]43C)[C@@]2(C)CC[C@H]1OC(C)=O (stereo partly shown) [Analog 29]			Inhibition of cell proliferation MDA-MB-231, % at 10 ug/ml (MDA-MB-231; Table 2, 10 ug/ml): 36% at 10; Percentage Inhibition of cell proliferation MDA-MB-231 (MDA-MB-231; Table 4, 10 μg/ml): 36% at 10 μg/ml; Inhibition of cell proliferation MCF-7, % at 10 ug/ml (MCF-7; Table 2, 10 ug/ml): 38.3% at; Percentage Inhibition of cell proliferation MCF-7 (MCF-7; Table 4, 10 μg/ml): 38.3 at 10 μg/ml %
		CC(=O)O[C@@H]1CC[C@@]2(C)C(CC[C@]3(C)C2C(=O)C=C2C4[C@@H](C)[C@H](C)CC[C@]4(C)CC[C@]23C)[C@@]1(C)C(=O)NC(C)C (stereo partly shown) [Analog 30]	35%	46%	inhibition at 10 µg/mL (MDA-MB-231; [3]): 35%; inhibition at 10 µg/mL (A549): 18%; inhibition at 10 µg/mL (MCF-7; [4]): 46%
		COC(=O)CNC(=O)[C@]1(C)C2CC[C@]3(C)C(C(=O)C=C4C5[C@@H](C)[C@H](C)CC[C@]5(C)CC[C@]43C)[C@@]2(C)CC[C@H]1OC(C)=O (stereo partly shown) [Analog 32]	41%	14%	inhibition at 10 µg/mL (MDA-MB-231; [3]): 41%; inhibition at 10 µg/mL (A549): 10%; inhibition at 10 µg/mL (MCF-7; [4]): 14%
		CC(=O)O[C@@H]1CC[C@@]2(C)C(CC[C@]3(C)C2C(=O)C=C2C4[C@@H](C)[C@H](C)CC[C@]4(C)CC[C@]23C)[C@@]1(C)C(=O)N1CCOCC1 (stereo partly shown) [Analog 37]	23%		
		C[C@@H]1CC[C@]2(C)CC[C@]3(C)C(=CC(=O)C4[C@@]5(C)CC[C@@H](O)[C@](C)(C(=O)N6CCN(CCO)CC6)C5CC[C@]43C)C2[C@H]1C (stereo partly shown) [Analog 38]	20%	2.73%	
32.11%	48.69%	CC(=O)O[C@@H]1CC[C@@]2(C)C(CC[C@]3(C)C2C(=O)C=C2C4[C@@H](C)[C@H](C)CC[C@]4(C)CC[C@]23C)[C@@]1(C)C(=O)N1CCN(CCO)CC1 (stereo partly shown) [Analog 39]			
18.40%	40.47%	CC(=O)O[C@@H]1CC[C@@]2(C)C(CC[C@]3(C)C2C(=O)C=C2C4[C@@H](C)[C@H](C)CC[C@]4(C)CC[C@]23C)[C@@]1(C)C(=O)n1ccnc1 (stereo partly shown) [Analog 40]	31%	2.7%	
		CC(=O)O[C@@H]1CC[C@@]2(C)C(CC[C@]3(C)C2C(=O)C=C2C4[C@@H](C)[C@H](C)CC[C@]4(C)CC[C@]23C)[C@@]1(C)C(=O)NC1Cc2ccccc2C1 (stereo partly shown) [Analog 41]	23%	3.74%	
		CC(=O)O[C@@H]1CC[C@@]2(C)C(CC[C@]3(C)C2C(=O)C=C2C4[C@@H](C)[C@H](C)CC[C@]4(C)CC[C@]23C)[C@@]1(C)C(=O)Nc1ccccc1 (stereo partly shown) [Analog 42]	6%	2.33%	
14.57%	30.90%	CNC(=O)[C@]1(C)C2CC[C@]3(C)C(C(=O)C=C4C5[C@@H](C)[C@H](C)CC[C@]5(C)CC[C@]43C)[C@@]2(C)CC[C@H]1OC(C)=O (stereo partly shown) [Analog 43]	47.8%	12.6%	
19.88%	30.02%	CC(=O)O[C@@H]1CC[C@@]2(C)C(CC[C@]3(C)C2C(=O)C=C2C4[C@@H](C)[C@H](C)CC[C@]4(C)CC[C@]23C)[C@@]1(C)C(=O)Nc1ccccc1Br (stereo partly shown) [Analog 44]			IC50 (MDA-MB-231; Table 4): 28.6 µg/mL (≈ 43 µM); IC50 (MCF-7; Table 4): 24.1 µg/mL (≈ 36.1 µM)
		CC(=O)O[C@@H]1CC[C@@]2(C)C(CC[C@]3(C)C2C(=O)C=C2C4[C@@H](C)[C@H](C)CC[C@]4(C)CC[C@]23C)[C@@]1(C)C(=O)N(C)CCO (stereo partly shown) [Analog 45]			IC50 (MDA-MB-231; Table 4): 12 µg/mL (≈ 21 µM); IC50 (MCF-7; Table 4): 11.9 µg/mL (≈ 20.8 µM)
19.01%	30.56%	CC(=O)O[C@@H]1CC[C@@]2(C)C(CC[C@]3(C)C2C(=O)C=C2C4[C@@H](C)[C@H](C)CC[C@]4(C)CC[C@]23C)[C@@]1(C)C(=O)Nc1ccc(O)cc1 (stereo partly shown) [Analog 46]		39%	
35.94%	54.10%	CC(=O)O[C@@H]1CC[C@@]2(C)C(CC[C@]3(C)C2C(=O)C=C2C4[C@@H](C)[C@H](C)CC[C@]4(C)CC[C@]23C)[C@@]1(C)C(=O)NNc1ccccc1 (stereo partly shown) [Analog 47]	39%	10%	
31.55%	47.02%	CC(=O)O[C@@H]1CC[C@@]2(C)C(CC[C@]3(C)C2C(=O)C=C2C4[C@@H](C)[C@H](C)CC[C@]4(C)CC[C@]23C)[C@@]1(C)C(=O)NCCN(CCO)CCO (stereo partly shown) [Analog 49]			Percentage Inhibition of cell proliferation MDA-MB-231 (MDA-MB-231; Table 4, 10 μg/ml): 21.4 at 10 μg/ml %; Percentage Inhibition of cell proliferation MCF-7 (MCF-7; Table 4, 10 μg/ml): 40.9% at 10 ug/ml
		CC(=O)O[C@@H]1CC[C@@]2(C)C(CC[C@]3(C)C2CC=C2C4[C@@H](C)[C@H](C)CC[C@]4(C)CC[C@]23C)[C@@]1(C)C(=O)NCCN (stereo partly shown) [Analog 51]			IC50 values MDA-MB-231 (MDA-MB-231; Table 4): IC50 at 10.5 μg/ml; IC50 values MCF-7 (MCF-7; Table 4): IC50 at 9.27 μg/ml
35.69%	64.24%	CC(=O)O[C@@H]1CC[C@@]2(C)C(CC[C@]3(C)C2CC=C2C4[C@@H](C)[C@H](C)CC[C@]4(C)CC[C@]23C)[C@@]1(C)C(=O)N1CCNCC1 (stereo partly shown) [Analog 54]			
		COC(=O)CCC(NC(=O)[C@]1(C)C2CC[C@]3(C)C(C(=O)C=C4C5[C@@H](C)[C@H](C)CC[C@]5(C)CC[C@]43C)[C@@]2(C)CC[C@H]1OC(C)=O)C(=O)OC (stereo partly shown) [Analog 56]	47%	20%	
21.46%	39.24%	C[C@@H]1CC[C@]2(C)CC[C@]3(C)C(=CC(Cl)=C4[C@@]5(C)CC[C@@H](O)[C@](C)(C(=O)O)C5CC[C@]43C)C2[C@H]1C (stereo partly shown) [Analog 59]			
		CC(=O)O[C@@H]1CC[C@]2(C)C3=C(Cl)C=C4C5[C@@H](C)[C@H](C)CC[C@]5(C)CC[C@@]4(C)[C@]3(C)CCC2[C@@]1(C)C(=O)NCCN (stereo partly shown) [Analog 61]		41%	IC50 (MDA-MB-231; Table 4): 8.55 µg/mL (≈ 14.9 µM)
36.26%		CC(=O)O[C@@H]1CC[C@]2(C)C3=C(Cl)C=C4C5[C@@H](C)[C@H](C)CC[C@]5(C)CC[C@@]4(C)[C@]3(C)CCC2[C@@]1(C)C(=O)NN (stereo partly shown) [Analog 62]			
36.20%	57.86%	CC(=O)O[C@@H]1CC[C@]2(C)C3=C(Cl)C=C4C5[C@@H](C)[C@H](C)CC[C@]5(C)CC[C@@]4(C)[C@]3(C)CCC2[C@@]1(C)C(=O)N1CCNCC1 (stereo partly shown) [Analog 63]			
